Experiments:
[1] = species: Mus musculus; test: animal or person; settings: C57BL/6, po, 144 h, read-out: INH
[2] = species: Mus musculus; test: animal or person; settings: C57BL/6, po, 144 h, read-out: INH; remark: listed apart in the source
[3] = species: Mus musculus; test: animal or person; settings: C57BL/6, po, 144 h, read-out: INH; remark: listed apart in the source
[4] = Clearance in mouse at 2 mg/kg, iv administered as infusion or 5 mg/kg, po via gavage measured up to 24 hrs by LC-MS analysis; type: ADME, organism-based; settings: in vivo
[5] = Volume of distribution at steady state in mouse at 2 mg/kg, iv administered as infusion or 5 mg/kg, po via gavage measured up to 24 hrs by LC-MS analysis; type: ADME, organism-based; settings: in vivo, read-out: Vdss
[6] = Half life in mouse at 2 mg/kg, iv administered as infusion or 5 mg/kg, po via gavage measured up to 24 hrs by LC-MS analysis; type: ADME, organism-based; settings: in vivo
[7] = AUC in mouse at 2 mg/kg, iv administered as infusion measured up to 24 hrs by LC-MS analysis; type: ADME, organism-based; set-up: time < 24 hr, dose 2 mg/kg, route intravenous; settings: in vivo
[8] = Permeability across apical to basolateral side in human Caco2 cells; settings: Caco-2
[9] = target: T1, Interleukin-1 receptor-associated kinase 4 (Homo sapiens, UniProt Q9NWZ3); test: Inhibition of IRAK4 in human whole blood assessed as inhibition of LTA-induced IL-6 production preincubated for 30 mins followed by LTA-stimulation and measured after 5 hrs by ELISA; type: tissue-based
T1 sequence (Q9NWZ3 whole entry): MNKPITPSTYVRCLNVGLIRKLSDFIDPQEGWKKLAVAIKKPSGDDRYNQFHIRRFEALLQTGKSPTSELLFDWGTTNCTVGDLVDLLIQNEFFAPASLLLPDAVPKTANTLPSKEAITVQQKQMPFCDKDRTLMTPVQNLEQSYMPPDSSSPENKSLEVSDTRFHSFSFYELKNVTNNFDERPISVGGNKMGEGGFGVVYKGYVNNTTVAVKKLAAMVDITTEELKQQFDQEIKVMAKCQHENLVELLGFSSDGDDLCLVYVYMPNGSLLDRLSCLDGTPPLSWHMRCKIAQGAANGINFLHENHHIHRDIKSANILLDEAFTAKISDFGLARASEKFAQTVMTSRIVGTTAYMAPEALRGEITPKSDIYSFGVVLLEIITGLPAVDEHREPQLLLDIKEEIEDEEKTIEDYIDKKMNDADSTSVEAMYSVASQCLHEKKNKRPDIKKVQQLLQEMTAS

[10] = target: T2, Interleukin-1 receptor-associated kinase 4 (Mus musculus) (UniProt Q8R4K2); test: In vivo Inhibition of IRAK4 in LTA-treated BALB/c mouse assessed as suppression of IL-6 level in serum at 1 mg/kg by ELISA relative to control; type: functional, organism-based
T2 sequence (whole entry): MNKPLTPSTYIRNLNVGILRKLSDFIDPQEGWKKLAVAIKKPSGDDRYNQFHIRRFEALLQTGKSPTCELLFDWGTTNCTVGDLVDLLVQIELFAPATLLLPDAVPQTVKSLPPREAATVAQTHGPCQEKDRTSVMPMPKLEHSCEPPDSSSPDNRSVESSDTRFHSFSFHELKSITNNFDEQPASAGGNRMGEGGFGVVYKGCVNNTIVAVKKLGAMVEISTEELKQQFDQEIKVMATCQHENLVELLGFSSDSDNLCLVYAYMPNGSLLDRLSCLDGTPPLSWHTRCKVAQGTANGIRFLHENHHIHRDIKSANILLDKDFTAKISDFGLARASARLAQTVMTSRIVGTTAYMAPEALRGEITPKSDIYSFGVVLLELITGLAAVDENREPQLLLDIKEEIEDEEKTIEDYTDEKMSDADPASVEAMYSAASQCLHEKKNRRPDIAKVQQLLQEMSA

[11] = target: T1, Interleukin-1 receptor-associated kinase 4; test: Inhibition of IRAK4 (unknown origin) using FL-IPTSPITTTYFFFKKK peptide and ATP as substrate incubated for 60 mins by fluorescence based caliper assay
[12] = species: Mus musculus; test: animal or person; settings: C57BL/6, po, 144 h, read-out: INH; remark: listed apart in the source
[13] = Drug uptake in imiquimod-induced C57BL/6 mouse model of psoriasis at 1 mg/kg, po dosed via gavage twice daily and measured after 2 hrs by LC-MS analysis; type: ADME, organism-based; settings: in vivo, read-out: Drug uptake
[14] = Drug uptake in imiquimod-induced C57BL/6 mouse model of psoriasis at 10 mg/kg, po dosed via gavage twice daily and measured after 2 hrs by LC-MS analysis; type: ADME, organism-based; settings: in vivo, read-out: Drug uptake
[15] = target: T3, Tyrosine-protein kinase receptor TYRO3 (Homo sapiens, UniProt Q06418); test: Inhibition of human wild type partial length TYRO3 (497 to 814 residues) expressed in bacterial expression system
T3 sequence (Q06418 whole entry): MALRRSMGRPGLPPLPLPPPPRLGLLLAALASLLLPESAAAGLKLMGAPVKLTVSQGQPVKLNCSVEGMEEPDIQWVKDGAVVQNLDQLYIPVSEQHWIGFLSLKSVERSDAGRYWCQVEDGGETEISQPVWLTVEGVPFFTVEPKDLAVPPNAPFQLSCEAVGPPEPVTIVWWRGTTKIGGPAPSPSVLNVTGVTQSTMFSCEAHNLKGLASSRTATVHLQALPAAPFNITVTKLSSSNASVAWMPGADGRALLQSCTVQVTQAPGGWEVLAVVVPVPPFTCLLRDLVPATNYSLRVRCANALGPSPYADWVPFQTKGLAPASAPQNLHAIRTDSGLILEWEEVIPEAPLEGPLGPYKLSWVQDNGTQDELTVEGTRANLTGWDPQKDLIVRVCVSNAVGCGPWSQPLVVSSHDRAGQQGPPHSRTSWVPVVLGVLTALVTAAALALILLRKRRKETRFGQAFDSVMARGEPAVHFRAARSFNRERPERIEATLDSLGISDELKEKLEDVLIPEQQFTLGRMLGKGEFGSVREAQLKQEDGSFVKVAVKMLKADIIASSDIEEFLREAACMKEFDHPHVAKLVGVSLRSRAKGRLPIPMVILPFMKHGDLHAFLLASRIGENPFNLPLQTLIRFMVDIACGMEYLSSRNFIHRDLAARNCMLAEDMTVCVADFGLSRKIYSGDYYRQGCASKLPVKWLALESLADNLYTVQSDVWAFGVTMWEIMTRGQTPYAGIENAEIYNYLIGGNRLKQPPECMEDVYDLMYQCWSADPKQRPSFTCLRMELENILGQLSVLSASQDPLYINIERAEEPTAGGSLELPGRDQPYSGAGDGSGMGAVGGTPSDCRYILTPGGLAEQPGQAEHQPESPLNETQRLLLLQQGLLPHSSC

[16] = species: Homo sapiens; test: Selectivity index, ratio of IC50 for N-terminal His6-tagged human full length recombinant LCK expressed in baculovirus infected Sf21 cells to IC50 for IRAK4 (unknown origin)
[17] = Stability in mouse liver microsomes assessed as parent compound remaining measured after 10 mins; type: ADME, Microsome; settings: read-out: Stability
[18] = Oral bioavailability in mouse at 5 mg/kg administered via gavage measured up to 24 hrs by LC-MS analysis; type: ADME, organism-based; settings: in vivo

SMILES: CC(C)Nc1cc(Nc2nc3ccnn3cc2F)ncc1C(=O)NC[C@@H](F)C(C)(C)O
- inhibition in vivo at 10 mg/kg [1]: 43%
- inhibition in vivo at 10 mg/kg [2]: 64%
- inhibition in vivo at 1 mg/kg [3]: 17%
- clearance [4]: 15 mL/min/kg
- Vd [5]: 2 L/kg
- half-life [6]: 84 min
- AUC at 24 h [7]: 5 µM·h
- Papp A→B [8]: 21.5 ×10⁻⁶ cm/s
- IC50 [9]: 920 nM
- inhibition [10]: 68%
- IC50 [11]: 3.4 nM
- inhibition in vivo at 3 mg/kg [12]: 30%
- concentration at 2 h [13]: 400 nM
- concentration at 2 h [14]: 9.4 µM
- IC50 [15]: 980 nM
- Ratio IC50 [16]: > 590
- remaining at 10 min [17]: 89%
- bioavailability [18]: > 100%

From ChEMBL document CHEMBL4622963, “Optimization of Nicotinamides as Potent and Selective IRAK4 Inhibitors with Efficacy in a Murine Model of Psoriasis” (ACS Med Chem Lett, 2020)
